Target: Acetylcholinesterase (AChE) (Electrophorus electricus, UniProt O42275)
Assay: Ellman's assay with purchased electric eel AChE, Dixon plot
Format: biochemical

Sequence of Acetylcholinesterase (AChE) (O42275 24-633): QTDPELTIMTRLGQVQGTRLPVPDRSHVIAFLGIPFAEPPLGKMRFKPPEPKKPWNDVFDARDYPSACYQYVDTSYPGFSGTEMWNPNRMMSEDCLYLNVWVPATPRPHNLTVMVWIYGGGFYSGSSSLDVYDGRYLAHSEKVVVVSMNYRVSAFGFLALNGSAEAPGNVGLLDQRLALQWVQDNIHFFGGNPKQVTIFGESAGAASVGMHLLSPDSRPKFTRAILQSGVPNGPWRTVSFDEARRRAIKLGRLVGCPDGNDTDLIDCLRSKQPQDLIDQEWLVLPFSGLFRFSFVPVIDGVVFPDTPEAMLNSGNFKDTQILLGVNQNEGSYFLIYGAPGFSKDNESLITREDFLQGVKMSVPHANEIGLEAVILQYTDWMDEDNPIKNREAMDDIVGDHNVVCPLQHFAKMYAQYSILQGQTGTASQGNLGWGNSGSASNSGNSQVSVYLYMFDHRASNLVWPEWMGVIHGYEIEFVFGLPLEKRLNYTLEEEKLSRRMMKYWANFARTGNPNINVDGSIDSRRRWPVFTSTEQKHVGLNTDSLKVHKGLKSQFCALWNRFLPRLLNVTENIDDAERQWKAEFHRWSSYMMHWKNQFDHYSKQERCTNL

Work on `OC(CCN1CCCCC1)(c1ccccc1)C1CC2C=CC1C2` (stereo not drawn) [Biperiden, alpha-bicyclo[2.2.1]hept-5-en-2-yl-alpha-phenyl-1-piperidinepropanol] yielded a Ki of 1.11 ± 0.2 mM.

— paper PMC5530453, “Anti-Parkinson Drug Biperiden Inhibits Enzyme Acetylcholinesterase” (BioMed Research International, 2017)
